# Article PMC8710297, “Identification of potent SENP1 inhibitors that inactivate SENP1/JAK2/STAT signaling pathway and overcome platinum drug resistance in ovarian cancer” (Clinical and Translational Medicine, 2021)
# Target: T1, SENP1 (Homo sapiens, UniProt Q9P0U3)
# T1 sequence (Q9P0U3 1-644): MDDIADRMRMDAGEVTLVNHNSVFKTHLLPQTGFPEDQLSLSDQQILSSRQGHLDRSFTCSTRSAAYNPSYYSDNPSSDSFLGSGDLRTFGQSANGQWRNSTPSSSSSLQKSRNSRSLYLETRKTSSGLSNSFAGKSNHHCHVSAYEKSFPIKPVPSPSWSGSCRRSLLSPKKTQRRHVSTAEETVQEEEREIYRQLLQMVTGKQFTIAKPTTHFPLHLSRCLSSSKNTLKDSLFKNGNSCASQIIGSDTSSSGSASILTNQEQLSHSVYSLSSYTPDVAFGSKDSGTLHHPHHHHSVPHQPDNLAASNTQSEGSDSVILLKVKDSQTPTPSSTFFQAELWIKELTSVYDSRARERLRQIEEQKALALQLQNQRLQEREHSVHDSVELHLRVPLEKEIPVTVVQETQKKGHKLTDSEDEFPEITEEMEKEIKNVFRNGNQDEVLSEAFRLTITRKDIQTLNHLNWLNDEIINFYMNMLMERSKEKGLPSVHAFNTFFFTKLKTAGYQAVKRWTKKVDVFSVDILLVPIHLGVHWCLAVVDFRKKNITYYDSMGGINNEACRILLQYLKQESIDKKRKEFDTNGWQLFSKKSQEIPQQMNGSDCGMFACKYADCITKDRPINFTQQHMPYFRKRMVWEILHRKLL
# Assay: In vitro (cell-free) thermal shift assay
# Assay type: binding
# Design: made in house
# Conditions: purified SENP1, 4 h, higher temperatures
# Protocol: FIGURE 2 UA directly interacts with Sentrin‐specific protease 1 (SENP1). (A) Cellular thermal shift assay to examine the interaction of UA with SENP1. IGROV1 CR cells pretreated with MG132 (10 μM, 1 h) were incubated with DMSO or UA for 4 h before being shifted to indicated temperatures. SENP1 stability was analyzed by using Western blot against SENP1 antibody. Right panel, quantification of non‐denatured SENP1 fraction shown in the left panel. (B) Cell‐free thermal shift assay to examine interactions of UA with SENP1. Purified SENP1 proteins were incubated with DMSO or UA for 4 h before being shifted to the indicated temperatures. SENP1 stability was analyzed by using Western blot against SENP1 antibody. Right panel, quantification of non‐denatured SENP1 fraction shown in the left panel. (C) The predicted docking pose of UA (C: green; H: white; O: red) at the hydrophobic catalytic cleft of SENP1 (C: salmon; H: white; O: red; N: blue). Key amino acid residues were highlighted. […] Stability of SENP1(C603A) was analyzed by using Western blot against SENP1 antibody. […] Left; Ultra‐high performance liquid‐chromatography‐MS/MS analyses of associated UA in indicated samples, right; quantification of data shown in left (the binding affinity of UA with SENP1‐C603A was normalized as 1). […]
# The qu anti ficatio n of immunohistochemical sta in ing wa s scored blindly at lea st by two independent obser vers. […]
structure (smiles),measurement,value
"C[C@H]1[C@H](C)CC[C@]2(C(=O)O)CC[C@]3(C)C(=CC[C@@H]4[C@@]5(C)CC[C@H](O)C(C)(C)[C@@H]5CC[C@]43C)[C@H]12 [UA, ursolic acid, reference compound]",thermal stabilization of recombinant SENP1 in vitro,stabilized
